The results in this text go back to ChEMBL document CHEMBL1145708, “Selective cytotoxicity of ginkgetin from Selaginella moellendorffii” (J Nat Prod, 1997).

What is called IC50 is the concentration at which inhibition is half-maximal.

The structures appear in SMILES notation. Values after ≈ are worked out from the molar mass of the structure shown. Active and inactive are the calls of the source. The rule behind the calls is not given here.

For data set [1], the system named is OVCAR-3. Kind of data set: Growth inhibition of human OVCAR-3 cells upto 10 ug/ml after 48 hrs. In kind it is functional, cell-based.
In data set [2] the test system is OVCAR-3. Kind of data set: Growth inhibition of human OVCAR-3 cells after 48 hrs. The data set is classed as functional, cell-based.
Data set [3] in a line: Growth inhibition of HEK cells. In kind it is cell-based. To be noted: human, hek293.
In another data set the test system is HepG2. The data set can be described thus: Growth inhibition of human HepG2 cells. The data set is classed as functional, cell-based.
Another data set has as its system HeLa. The data set can be described thus: Growth inhibition of human HeLa cells. The data set is classed as functional, cell-based.

Consider `COc1ccc(-c2cc(=O)c3c(O)cc(O)c(-c4cc(-c5cc(=O)c6c(O)cc(O)cc6o5)ccc4O)c3o2)cc1`, for which, in the data set with OVCAR-3 [1], the result was inactive.
On the same count and under the same terms, for `COc1ccc(-c2cc(=O)c3c(O)cc(OC)c(-c4cc(-c5cc(=O)c6c(O)cc(O)cc6o5)ccc4OC)c3o2)cc1` the value was “inactive”; for `COc1ccc(-c2cc(=O)c3c(O)cc(OC)c(-c4cc(-c5cc(=O)c6c(O)cc(OC)cc6o5)ccc4OC)c3o2)cc1`, “inactive”; for `O=c1cc(-c2ccc(O)c(-c3c(O)cc(O)c4c(=O)cc(-c5ccc(O)cc5)oc34)c2)oc2cc(O)cc(O)c12`, “inactive”.
As to `COc1cc(O)c2c(=O)cc(-c3ccc(OC)c(-c4c(O)cc(O)c5c(=O)cc(-c6ccc(O)cc6)oc45)c3)oc2c1` [GINKGETIN], the results for the Activity result (with OVCAR-3 [2]; in data set [3]) were “Dose-dependent effect” and “Not Active”, respectively. In the data set on OVCAR-3 [2] (OVCAR-3, 48 h), this compound yielded an IC50 of 1.8 µg/mL (≈ 3.18 µM). Moreover, the result in the data set with HepG2 and in the data set on HeLa was inactive.
